In the supplement of paper PMC10307832:

Tests used:
Experiment in all cases: relative viability (nuclei count vs DMSO), 5 days (fraction); higher = more cells survive
Dinaciclib + Trametinib = compound: CCc1cnn2c(NCc3ccc[n+]([O-])c3)cc(N3CCCC[C@H]3CCO)nc12 [Dinaciclib] + CC(=O)Nc1cccc(-n2c(=O)n(C3CC3)c(=O)c3c(Nc4ccc(I)cc4F)n(C)c(=O)c(C)c32)c1 [Trametinib] (partner 0.02 µM)
In short: (§1)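 Dosing by pin tool came one day after lung cancer cell lines were seeded in 1536-well plates, using either one drug or a fixed anchor-drug dose plus five library-drug doses (not always all listed) in √10 steps. After 5 days, nuclei were counted on 4× images. Relative viability is treated-well nuclei count divided by vehicle-well nuclei count, and values are medians of duplicate plates.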

Dinaciclib + Navitoclax = compound: CCc1cnn2c(NCc3ccc[n+]([O-])c3)cc(N3CCCC[C@H]3CCO)nc12 [Dinaciclib] + CC1(C)CCC(c2ccc(Cl)cc2)=C(CN2CCN(c3ccc(C(=O)NS(=O)(=O)c4ccc(N[C@H](CCN5CCOCC5)CSc5ccccc5)c(S(=O)(=O)C(F)(F)F)c4)cc3)CC2)C1 [Navitoclax] (partner 0.5 µM)
In short: as §1

Dinaciclib + Foretinib = compound: CCc1cnn2c(NCc3ccc[n+]([O-])c3)cc(N3CCCC[C@H]3CCO)nc12 [Dinaciclib] + COc1cc2c(Oc3ccc(NC(=O)C4(C(=O)Nc5ccc(F)cc5)CC4)cc3F)ccnc2cc1OCCCN1CCOCC1 [Foretinib] (partner 0.25 µM)
In short: as §1

Dinaciclib + Lapatinib = compound: CCc1cnn2c(NCc3ccc[n+]([O-])c3)cc(N3CCCC[C@H]3CCO)nc12 [Dinaciclib] + CS(=O)(=O)CCNCc1ccc(-c2ccc3ncnc(Nc4ccc(OCc5cccc(F)c5)c(Cl)c4)c3c2)o1 [Lapatinib] (partner 2 µM)
In short: as §1

Dinaciclib + Dasatinib = compound: CCc1cnn2c(NCc3ccc[n+]([O-])c3)cc(N3CCCC[C@H]3CCO)nc12 [Dinaciclib] + Cc1nc(Nc2ncc(C(=O)Nc3c(C)cccc3Cl)s2)cc(N2CCN(CCO)CC2)n1 [Dasatinib] (partner 0.075 µM)
In short: as §1

Cell Line | relative viability (Dinaciclib + Trametinib; first compound 0.009487 µM) | relative viability (Dinaciclib + Trametinib; first compound 0.03 µM) | relative viability (Dinaciclib + Trametinib; first compound 0.09487 µM) | relative viability (Dinaciclib + Trametinib; first compound 0.3 µM) | relative viability (Dinaciclib + Navitoclax; first compound 0.009487 µM) | relative viability (Dinaciclib + Navitoclax; first compound 0.03 µM) | relative viability (Dinaciclib + Navitoclax; first compound 0.09487 µM) | relative viability (Dinaciclib + Navitoclax; first compound 0.3 µM) | relative viability (Dinaciclib + Foretinib; first compound 0.009487 µM) | relative viability (Dinaciclib + Foretinib; first compound 0.03 µM) | relative viability (Dinaciclib + Foretinib; first compound 0.09487 µM) | relative viability (Dinaciclib + Foretinib; first compound 0.3 µM) | relative viability (Dinaciclib + Lapatinib; first compound 0.009487 µM) | relative viability (Dinaciclib + Lapatinib; first compound 0.03 µM) | relative viability (Dinaciclib + Lapatinib; first compound 0.09487 µM) | relative viability (Dinaciclib + Lapatinib; first compound 0.3 µM) | relative viability (Dinaciclib + Dasatinib; first compound 0.009487 µM) | relative viability (Dinaciclib + Dasatinib; first compound 0.03 µM) | relative viability (Dinaciclib + Dasatinib; first compound 0.09487 µM) | relative viability (Dinaciclib + Dasatinib; first compound 0.3 µM)
NCI-H3122 | 0.292 | 0.102 | 0.0935 | 0.0911 | 0.973 | 0.156 | 0.119 | 0.142 | 1.02 | 0.131 | 0.0904 | 0.0928 | 1.01 | 0.185 | 0.147 | 0.169 | 0.616 | 0.0841 | 0.0766 | 0.0827
PC-3 [JPC-3] | 0.737 | 0.657 | 0.334 | 0.321 | 0.764 | 0.713 | 0.394 | 0.2 | 1.09 | 0.93 | 0.254 | 0.224 | 0.431 | 0.419 | 0.365 | 0.23 | 0.991 | 0.978 | 0.465 | 0.194
PC-14 | 0.412 | 0.0589 | 0.0476 | 0.0471 | 0.78 | 0.0911 | 0.0667 | 0.0708 | 0.841 | 0.543 | 0.0986 | 0.0886 | 0.305 | 0.221 | 0.106 | 0.0778 | 0.153 | 0.0351 | 0.0238 | 0.0244
RERF-LC-KJ | 0.753 | 0.22 | 0.143 | 0.152 | 0.906 | 0.172 | 0.122 | 0.169 | 0.902 | 0.635 | 0.15 | 0.101 | 0.958 | 0.563 | 0.151 | 0.128 | 0.36 | 0.192 | 0.15 | 0.159
SK-LU-1 | 0.517 | 0.176 | 0.205 | 0.186 | 0.746 | 0.0883 | 0.0998 | 0.11 | 0.579 | 0.158 | 0.139 | 0.121 | 0.717 | 0.178 | 0.129 | 0.13 | 0.173 | 0.142 | 0.134 | 0.135
SK-MES-1 | 0.536 | 0.175 | 0.192 | 0.178 | 1.26 | 0.131 | 0.114 | 0.119 | 0.962 | 0.189 | 0.135 | 0.137 | 0.5 | 0.355 | 0.16 | 0.151 | 0.217 | 0.109 | 0.0863 | 0.114
SW 1573 | 0.404 | 0.0877 | 0.0832 | 0.0755 | 0.919 | 0.0461 | 0.0459 | 0.0437 | 0.827 | 0.526 | 0.0711 | 0.0971 | 1.25 | 0.575 | 0.0951 | 0.0867 | 0.161 | 0.0578 | 0.0571 | 0.06
UMC-11 | 0.253 | 0.172 | 0.132 | 0.146 | 0.133 | 0.103 | 0.113 | 0.102 | 0.277 | 0.189 | 0.166 | 0.19 | 0.442 | 0.179 | 0.143 | 0.169 | 0.209 | 0.175 | 0.142 | 0.144
